Experimental data as given in the NIST ThermoML archive (doi:10.1016/j.jct.2007.05.004).
± gives the expanded uncertainty stated by the source.

Columns and labels:
[1] = xn = mol fraction of the nth substance listed; details: 101 kPa, Liquid
[2] = 101 kPa, Liquid

COC(C)=O [methyl ethanoate] + CCO
[1]
Details | mass density, 293.15 K [kg/m3] | mass density, 298.15 K [kg/m3] | mass density, 303.15 K [kg/m3] | viscosity, 293.15 K [mPa·s] | viscosity, 298.15 K [mPa·s] | viscosity, 303.15 K [mPa·s]
x2 = 0 | 933.56 ± 0.4 | 926.98 ± 0.41 | 920.34 ± 0.42 | 0.386 ± 0.006 | 0.367 ± 0.006 | 0.348 ± 0.006
x2 = 0.0493 | 927.83 ± 0.4 | 921.31 ± 0.41 | 914.73 ± 0.41 | 0.383 ± 0.006 | 0.363 ± 0.006 | 0.345 ± 0.006
x2 = 0.0987 | 922 ± 0.39 | 915.54 ± 0.4 | 909.02 ± 0.41 | 0.389 ± 0.006 | 0.365 ± 0.006 | 0.347 ± 0.006
x2 = 0.1998 | 909.85 ± 0.38 | 903.54 ± 0.39 | 897.15 ± 0.4 | 0.398 ± 0.006 | 0.377 ± 0.006 | 0.359 ± 0.006
x2 = 0.3006 | 897.16 ± 0.38 | 891 ± 0.39 | 884.79 ± 0.4 | 0.419 ± 0.006 | 0.395 ± 0.006 | 0.374 ± 0.006
x2 = 0.3973 | 884.52 ± 0.38 | 878.56 ± 0.39 | 872.54 ± 0.4 | 0.444 ± 0.007 | 0.418 ± 0.006 | 0.394 ± 0.006
x2 = 0.4863 | 872.35 ± 0.39 | 866.59 ± 0.4 | 860.77 ± 0.41 | 0.477 ± 0.007 | 0.449 ± 0.007 | 0.422 ± 0.006
x2 = 0.6031 | 855.48 ± 0.4 | 849.99 ± 0.4 | 844.45 ± 0.41 | 0.54 ± 0.008 | 0.505 ± 0.007 | 0.473 ± 0.007
x2 = 0.6972 | 841.15 ± 0.4 | 835.91 ± 0.41 | 830.62 ± 0.42 | 0.615 ± 0.009 | 0.572 ± 0.008 | 0.537 ± 0.008
x2 = 0.7986 | 824.84 ± 0.42 | 819.89 ± 0.43 | 814.9 ± 0.43 | 0.735 ± 0.01 | 0.684 ± 0.009 | 0.64 ± 0.009
x2 = 0.9009 | 807.47 ± 0.44 | 802.85 ± 0.44 | 798.18 ± 0.45 | 0.903 ± 0.012 | 0.838 ± 0.011 | 0.768 ± 0.01
x2 = 0.951 | 798.76 ± 0.45 | 794.3 ± 0.45 | 789.81 ± 0.46 | 1.032 ± 0.013 | 0.945 ± 0.012 | 0.868 ± 0.011

CCOC(C)=O [ethyl acetate]
[2]
Details | mass density [kg/m3] | viscosity [mPa·s]
293.15 K | 900.52 ± 0.29 | 0.452 ± 0.007
298.15 K | 894.43 ± 0.3 | 0.426 ± 0.006
303.15 K | 888.3 ± 0.31 | 0.403 ± 0.006

CCO [ethanol] + O
[1]
Details | mass density, 293.15 K [kg/m3] | mass density, 298.15 K [kg/m3] | mass density, 303.15 K [kg/m3] | viscosity, 293.15 K [mPa·s] | viscosity, 298.15 K [mPa·s] | viscosity, 303.15 K [mPa·s]
x2 = 0 | 789.75 ± 0.46 | 785.46 ± 0.47 | 781.15 ± 0.47 | 1.187 ± 0.015 | 1.082 ± 0.014 | 0.987 ± 0.013
x2 = 0.0501 | 795.99 ± 0.45 | 791.68 ± 0.46 | 787.35 ± 0.46 | 1.277 ± 0.016 | 1.153 ± 0.015 | 1.046 ± 0.014
x2 = 0.0986 | 802.09 ± 0.44 | 797.77 ± 0.45 | 793.41 ± 0.45 | 1.371 ± 0.017 | 1.232 ± 0.016 | 1.111 ± 0.014
x2 = 0.1961 | 814.88 ± 0.42 | 810.54 ± 0.43 | 806.14 ± 0.43 | 1.549 ± 0.019 | 1.38 ± 0.018 | 1.237 ± 0.016
x2 = 0.2961 | 829.05 ± 0.4 | 824.7 ± 0.41 | 820.29 ± 0.41 | 1.735 ± 0.022 | 1.531 ± 0.02 | 1.357 ± 0.017
x2 = 0.3991 | 845.25 ± 0.38 | 840.94 ± 0.39 | 836.55 ± 0.39 | 1.975 ± 0.026 | 1.659 ± 0.022 | 1.515 ± 0.019
x2 = 0.4971 | 862.82 ± 0.36 | – | – | 2.225 ± 0.028 | – | –
x2 = 0.5989 | 884.07 ± 0.33 | 879.89 ± 0.33 | 875.63 ± 0.33 | 2.479 ± 0.032 | 2.115 ± 0.028 | 1.821 ± 0.024
x2 = 0.6991 | 908.69 ± 0.28 | 904.65 ± 0.29 | 900.55 ± 0.29 | 2.705 ± 0.034 | 2.275 ± 0.03 | 1.941 ± 0.027
x2 = 0.8001 | 937.33 ± 0.23 | 933.65 ± 0.24 | 929.9 ± 0.25 | 2.7 ± 0.032 | 2.3 ± 0.03 | 1.937 ± 0.03
x2 = 0.8996 | 965.71 ± 0.18 | 963.24 ± 0.19 | 960.61 ± 0.19 | 2.223 ± 0.027 | 1.86 ± 0.025 | 1.58 ± 0.024
x2 = 0.9499 | 979.28 ± 0.16 | 977.72 ± 0.16 | 975.93 ± 0.16 | 1.63 ± 0.021 | 1.388 ± 0.019 | 1.207 ± 0.017
